Experiments:
human A3 AR = target: T1, human A3 AR (Homo sapiens, UniProt P0DMS8); test: Radioligand binding assay at human A3 AR vs. [^3H]PSB-11; settings: for Ki: CHO cell membranes, n = 2 (n = 3 where marked a), read-out: Ki ± SEM, A3 vs. [^3H]PSB-11; for inhibition at 10 µM: at 10,000 nM, read-out: % inhibition of radioligand binding at indicated concentration, A3 vs. [^3H]PSB-11
T1 construct: expressed in transfected cells; host or cells: CHO cells
T1 sequence (P0DMS8 1-318): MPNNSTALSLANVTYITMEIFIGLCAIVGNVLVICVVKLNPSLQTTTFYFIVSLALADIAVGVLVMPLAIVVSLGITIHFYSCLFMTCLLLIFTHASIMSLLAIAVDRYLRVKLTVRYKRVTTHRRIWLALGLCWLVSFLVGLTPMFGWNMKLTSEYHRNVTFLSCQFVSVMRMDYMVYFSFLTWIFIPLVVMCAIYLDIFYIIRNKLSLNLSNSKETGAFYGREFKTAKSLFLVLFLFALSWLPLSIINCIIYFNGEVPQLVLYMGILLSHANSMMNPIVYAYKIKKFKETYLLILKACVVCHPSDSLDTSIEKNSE
Method in brief: (§1)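 Competition binding; rat A1: brain cortex membranes; rat A2A: brain striatum membranes; human A1/A2A/A2B/A3: membranes from CHO cells each expressing one human subtype. Affinity only, no functional testing.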

rat A2A AR = target: T2, rat A2A AR (Rattus norvegicus, UniProt P30543); test: Radioligand binding assay at rat A2A AR (rat brain striatum) vs. [^3H]MSX-2; settings: rat (r); for Ki: rat brain striatum, n = 3, read-out: Ki ± SEM, A2A vs. [^3H]MSX-2; for % inhibition of radioligand binding at indicated concentration, A2A vs. [^3H]MSX-2: at 1,000 nM
T2 construct: A2A ARs of rat brain striatal membrane preparations; from tissue; host or cells: rat brain striatum membranes
T2 sequence (P30543 whole entry): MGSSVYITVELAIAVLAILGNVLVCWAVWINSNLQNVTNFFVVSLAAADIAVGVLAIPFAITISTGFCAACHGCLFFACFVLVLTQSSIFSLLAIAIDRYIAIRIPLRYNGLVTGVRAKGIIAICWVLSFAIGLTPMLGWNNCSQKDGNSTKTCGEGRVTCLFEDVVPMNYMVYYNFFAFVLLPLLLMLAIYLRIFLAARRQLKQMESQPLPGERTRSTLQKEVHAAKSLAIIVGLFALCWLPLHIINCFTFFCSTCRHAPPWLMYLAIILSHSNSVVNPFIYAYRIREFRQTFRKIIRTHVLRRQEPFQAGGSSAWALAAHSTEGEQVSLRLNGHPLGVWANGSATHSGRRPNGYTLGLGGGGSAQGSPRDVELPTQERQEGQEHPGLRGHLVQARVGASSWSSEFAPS
Method in brief: as §1

rat A1 AR = target: T3, rat A1 AR (Rattus norvegicus, UniProt P25099); test: Radioligand binding assay at rat A1 AR (rat brain cortex) vs. [^3H]CCPA; settings: rat (r); for Ki: rat brain cortex, n = 3
T3 construct: A1 ARs of rat brain cortical membrane; from tissue; host or cells: rat brain cortex membranes
T3 sequence (P25099 1-326): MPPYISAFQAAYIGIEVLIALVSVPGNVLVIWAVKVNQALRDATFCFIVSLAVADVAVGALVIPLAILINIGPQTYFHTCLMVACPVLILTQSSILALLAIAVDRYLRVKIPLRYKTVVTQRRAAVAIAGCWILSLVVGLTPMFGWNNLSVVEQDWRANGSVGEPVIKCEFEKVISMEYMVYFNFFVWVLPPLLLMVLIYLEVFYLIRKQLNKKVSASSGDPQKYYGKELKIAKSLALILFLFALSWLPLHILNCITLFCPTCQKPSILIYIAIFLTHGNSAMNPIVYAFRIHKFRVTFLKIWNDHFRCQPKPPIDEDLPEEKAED
Method in brief: as §1

human A1 AR = target: T4, human A1 AR (Homo sapiens, UniProt P30542); test: Radioligand binding assay at human A1 AR vs. [^3H]CCPA; settings: human (h); CHO cell membranes; n = 3
T4 construct: expressed in transfected cells; host or cells: CHO cells
T4 sequence (P30542 1-326): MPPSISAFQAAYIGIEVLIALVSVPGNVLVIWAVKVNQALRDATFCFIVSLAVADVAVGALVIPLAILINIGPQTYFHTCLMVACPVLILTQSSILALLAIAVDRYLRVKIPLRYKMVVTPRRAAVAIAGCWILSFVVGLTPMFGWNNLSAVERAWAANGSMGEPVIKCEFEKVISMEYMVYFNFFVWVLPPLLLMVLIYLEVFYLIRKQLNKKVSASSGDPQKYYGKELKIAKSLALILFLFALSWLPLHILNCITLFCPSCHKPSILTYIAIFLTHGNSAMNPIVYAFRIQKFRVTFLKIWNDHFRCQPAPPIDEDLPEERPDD
Method in brief: as §1

recombinant human MAO-B = target: T5, recombinant human MAO-B (Homo sapiens, UniProt P27338); test: Monoamine oxidase assay (Amplex Red), MAO-B; format: biochemical; settings: for inhibition at 10 µM: at 10,000 nM (10 μM), read-out: % inhibition at indicated concentration, Human MAO-B; for IC50: n = 3, read-out: IC50 ± SEM, Human MAO-B
T5 construct: purchased Sigma-Aldrich M7441; host or cells: baculovirus-infected insect cells
T5 sequence (P27338 1-520): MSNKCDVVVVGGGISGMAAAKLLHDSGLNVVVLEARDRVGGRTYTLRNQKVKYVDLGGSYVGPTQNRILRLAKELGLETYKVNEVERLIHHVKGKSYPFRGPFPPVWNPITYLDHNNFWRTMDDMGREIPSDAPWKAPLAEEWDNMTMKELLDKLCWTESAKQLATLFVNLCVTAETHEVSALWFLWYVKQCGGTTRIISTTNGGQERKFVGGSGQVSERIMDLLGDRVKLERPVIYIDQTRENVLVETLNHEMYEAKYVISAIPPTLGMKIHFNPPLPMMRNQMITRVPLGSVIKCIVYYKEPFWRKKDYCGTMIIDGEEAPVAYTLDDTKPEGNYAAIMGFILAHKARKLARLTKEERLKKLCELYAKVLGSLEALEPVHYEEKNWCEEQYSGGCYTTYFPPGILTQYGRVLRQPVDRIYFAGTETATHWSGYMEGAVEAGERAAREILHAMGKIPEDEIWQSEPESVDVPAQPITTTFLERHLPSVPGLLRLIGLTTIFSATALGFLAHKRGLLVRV
Method in brief: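 Inhibition was measured with an Amplex Red monoamine oxidase assay, using human MAO-A and MAO-B produced recombinantly in baculovirus-infected insect cells. For rat MAO-B, liver mitochondria-enriched fractions from male Sprague Dawley rats served as enzyme source.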

| SMILES | Ki (human A3 AR) | inhibition at 10 µM (human A3 AR) | Ki (rat A2A AR) | Ki (rat A1 AR) | Ki (human A1 AR) | inhibition at 10 µM (recombinant human MAO-B) | IC50 (recombinant human MAO-B) | % inhibition of radioligand binding at indicated concentration, A2A vs. [^3H]MSX-2 (rat A2A AR) | inhibition at 1.5 µM (rat A1 AR; read-out: % inhibition of radioligand binding at indicated concentration, A1 vs. [^3H]CCPA, at 1,500 nM) |
| --- | --- | --- | --- | --- | --- | --- | --- | --- | --- |
| Cn1c(=O)c2c(nc3n2CCN(Cc2ccc(Cl)c(Cl)c2)C3)n(C2CC2)c1=O [Compound 17, 8-(3,4-dichlorobenzyl)-1-cyclopropyl-3-methyl-6,7,8,9-tetrahydropyrazino[2,1-f]purine-2,4(1H,3H)-dione] | > 10000 nM | 26% | 3940 nM | 584 ± 8 nM | 1130 nM |  | 3690 nM |  |  |
| CCn1c(=O)c2c(nc3n2CCN(Cc2cccc(F)c2)C3)n(C)c1=O [Compound 14g, 3-ethyl-8-(3-fluorobenzyl)-1-methyl-6,7,8,9-tetrahydropyrazino[2,1-f]purine-2,4(1H,3H)-dione] | > 10000 nM | 24% | > 1000 nM | 59.4 ± 7.7 nM | 85.3 ± 5.5 nM | 48% | ≥ 10000 nM | 18% |  |
| CCn1c(=O)c2c(nc3n2CCN(Cc2cc(Br)ccc2F)C3)n(C)c1=O [Compound 14o, 8-(5-bromo-2-fluorobenzyl)-3-ethyl-1-methyl-6,7,8,9-tetrahydropyrazino[2,1-f]purine-2,4(1H,3H)-dione] | > 10000 nM | 39% | 880 ± 174 nM | 36 ± 18.4 nM | 116 ± 27 nM |  | 3070 nM |  |  |

The remaining lines, values ahead:

| Ki (human A3 AR) | inhibition at 10 µM (human A3 AR) | Ki (rat A2A AR) | Ki (rat A1 AR) | Ki (human A1 AR) | inhibition at 10 µM (recombinant human MAO-B) | IC50 (recombinant human MAO-B) | % inhibition of radioligand binding at indicated concentration, A2A vs. [^3H]MSX-2 (rat A2A AR) | inhibition at 1.5 µM (rat A1 AR; read-out: % inhibition of radioligand binding at indicated concentration, A1 vs. [^3H]CCPA, at 1,500 nM) | SMILES |
| --- | --- | --- | --- | --- | --- | --- | --- | --- | --- |
| > 10000 nM | 25% | 414 ± 49 nM | 153 ± 10 nM | 110 ± 4 nM | 59% | < 10000 nM |  |  | C#CCn1c(=O)c2c(nc3n2CCN(Cc2cc(C(F)(F)F)ccc2Cl)C3)n(C)c1=O [Compound 19b, 8-(2-chloro-5-(trifluoromethyl)benzyl)-1-methyl-3-propargyl-6,7,8,9-tetrahydropyrazino[2,1-f]purine-2,4(1H,3H)-dione] |
| > 10000 nM | 36% | 1030 nM | 30 ± 5.7 nM | 84.8 ± 2.4 nM | 10% | > 10000 nM |  |  | CCn1c(=O)c2c(nc3n2CCN(Cc2cccc(C(F)(F)F)c2)C3)n(CC)c1=O [Compound 15g, 1,3-diethyl-8-(3-(trifluoromethyl)benzyl)-6,7,8,9-tetrahydropyrazino[2,1-f]purine-2,4(1H,3H)-dione] |
| > 10000 nM | 14% | > 1000 nM | > 1500 nM | 1190 nM |  | 524 ± 26 nM | 36% | 25% | CCn1c(=O)c2c(nc3n2CCN(Cc2cc(F)c(F)c(F)c2)C3)n(CC)c1=O [Compound 15r, 1,3-diethyl-8-(3,4,5-trifluorobenzyl)-6,7,8,9-tetrahydropyrazino[2,1-f]purine-2,4(1H,3H)-dione] |
| > 10000 nM | 38% | 871 ± 50 nM | 19.6 ± 3 nM | 22.6 ± 2.7 nM | 54% | ≤ 10000 nM |  |  | CCn1c(=O)c2c(nc3n2CCN(Cc2cc(C(F)(F)F)ccc2Cl)C3)n(CC)c1=O [Compound 15n, 8-(2-chloro-5-(trifluoromethyl)benzyl)-1,3-diethyl-6,7,8,9-tetrahydropyrazino[2,1-f]purine-2,4(1H,3H)-dione] |
| 4720 nM |  | 2200 nM | 89.6 ± 21.4 nM | 207 ± 48 nM | 66% | < 10000 nM |  |  | CCn1c(=O)c2c(nc3n2CCN(Cc2cc(Cl)cc(Cl)c2)C3)n(CC)c1=O [Compound 15m, 8-(3,5-dichlorobenzyl)-1,3-diethyl-6,7,8,9-tetrahydropyrazino[2,1-f]purine-2,4(1H,3H)-dione] |

From publication PMC6028563, “Probing Substituents in the 1- and 3-Position: Tetrahydropyrazino-Annelated Water-Soluble Xanthine Derivatives as Multi-Target Drugs With Potent Adenosine Receptor Antagonistic Activity” (Frontiers in Chemistry, 2018)
